A value given as a limit tells only on which side of the number the result lay.

In assay [1] the target is T1, VEGFR2 (Homo sapiens, UniProt P35968).
T1 construct: expressed in transfected cells; host or cells: CHO cells, pcDNA3.1 plasmid
The assay is described as follows: VEGFR2 cell-based assay (phospho-VEGFR2 ELISA, transfected CHO cells). The following applies: compound at 100 nM, read-out: % VEGFR2 kinase activity remains. A digest of the protocol: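 Serum-starved CHO cells transfected with full-length VEGFR2 treated 2 h with compound (0.5–500 nM), then stimulated with 20% FBS. Lysates analyzed by ELISA for phospho- and total VEGFR2 using streptavidin-HRP chemiluminescence.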
(In general: An ELISA detects its analyte on a solid surface through an enzyme-linked reagent.)

The test system of assay [2] is MKN-45 human gastric cancer cells. The experiment in a line: In vivo anti-tumor efficacy, MKN-45 xenograft. The conditions noted are these: Gastric cancer MKN-45, nu/nu Balb/c mice. How it is done:
(§1) Female (nu/nu) Balb/c athymic mice at 4-6 weeks of age were injected subcutaneously (s.c.) with MDA-MB-231 human breast cancer cells, A549 human non-small cell lung cancer cells, U87-MG human glioblastoma cells, PC-3 human prostate cancer cells, HT-29 human colon cancer, BEL-7404 human hepatocellular carcinoma, or MKN-45 human gastric cancer cells (ATCC, 5×10^6 cells suspended in 100 μl DMEM medium). Treatment was initiated after the tumor mass grown from s.c. implanted tumor cells reached a median volume of 200-400 mm^3. Mice were randomized into groups with three in each group for small-sample efficacy tests such that the median tumor volume is nearly equal among all groups. For large-sample efficacy tests, mice were randomized into groups with thirteen or fourteen in each group. Each group was treated either with compounds (dissolved in 2:1 mixture of PEG400 and 0.01N HCl (v/v)) or without compounds (vehicle only, 2:1 mixture of PEG400 and 0.01N HCl (v/v)) once per day at dose 12.5, 25, 50 or 100 mg/kg by oral gavage. Tumor volumes were assessed at least twice weekly by caliper measurement from the start of treatment. Tumor volume was calculated using the formula ½×L×W^2 (L: length of tumor's long axis, W: length of tumor's short axis). Treatment was applied for at least two weeks or until the tumor volume reaches a size of ˜2500 mm^3 or greater. Mice were humanly sacrificed after the experiment. The efficacy of compounds in reducing tumor growth was assessed by the index Tumor Growth Inhibition (TGI). TGI for a given treatment period was calculated using the group mean tumor volumes according to the formula: TGI=100×(VVehicle—group−VTreatment—group)÷VVehicle—group wherein VVehicle—group represents the mean tumor volume for the group treated with vehicle and VTreatment—group represents the mean tumor volume of the group treated with a compound.

The subject of assay [3] is A549 human non-small cell lung cancer cells. The experiment in a line: In vivo anti-tumor efficacy, A549 xenograft. The conditions noted are these: Non-small cell lung cancer A549, nu/nu Balb/c mice, 50 mg/kg oral once per day, n = 2 × 3. How it is done: as §1
The test system of assay [4] is PC-3 human prostate cancer cells. The experiment in a line: In vivo anti-tumor efficacy, PC-3 xenograft. The conditions noted are these: Prostate cancer PC-3, nu/nu Balb/c mice, 50 mg/kg oral once per day, n = 2 × 3. Here is the method: as §1
The target in assay [5] is T2, c-Met (Homo sapiens, UniProt P08581).
T2 construct: endogenous in cells; host or cells: A549 cells
T2 sequence (P08581 25-1390): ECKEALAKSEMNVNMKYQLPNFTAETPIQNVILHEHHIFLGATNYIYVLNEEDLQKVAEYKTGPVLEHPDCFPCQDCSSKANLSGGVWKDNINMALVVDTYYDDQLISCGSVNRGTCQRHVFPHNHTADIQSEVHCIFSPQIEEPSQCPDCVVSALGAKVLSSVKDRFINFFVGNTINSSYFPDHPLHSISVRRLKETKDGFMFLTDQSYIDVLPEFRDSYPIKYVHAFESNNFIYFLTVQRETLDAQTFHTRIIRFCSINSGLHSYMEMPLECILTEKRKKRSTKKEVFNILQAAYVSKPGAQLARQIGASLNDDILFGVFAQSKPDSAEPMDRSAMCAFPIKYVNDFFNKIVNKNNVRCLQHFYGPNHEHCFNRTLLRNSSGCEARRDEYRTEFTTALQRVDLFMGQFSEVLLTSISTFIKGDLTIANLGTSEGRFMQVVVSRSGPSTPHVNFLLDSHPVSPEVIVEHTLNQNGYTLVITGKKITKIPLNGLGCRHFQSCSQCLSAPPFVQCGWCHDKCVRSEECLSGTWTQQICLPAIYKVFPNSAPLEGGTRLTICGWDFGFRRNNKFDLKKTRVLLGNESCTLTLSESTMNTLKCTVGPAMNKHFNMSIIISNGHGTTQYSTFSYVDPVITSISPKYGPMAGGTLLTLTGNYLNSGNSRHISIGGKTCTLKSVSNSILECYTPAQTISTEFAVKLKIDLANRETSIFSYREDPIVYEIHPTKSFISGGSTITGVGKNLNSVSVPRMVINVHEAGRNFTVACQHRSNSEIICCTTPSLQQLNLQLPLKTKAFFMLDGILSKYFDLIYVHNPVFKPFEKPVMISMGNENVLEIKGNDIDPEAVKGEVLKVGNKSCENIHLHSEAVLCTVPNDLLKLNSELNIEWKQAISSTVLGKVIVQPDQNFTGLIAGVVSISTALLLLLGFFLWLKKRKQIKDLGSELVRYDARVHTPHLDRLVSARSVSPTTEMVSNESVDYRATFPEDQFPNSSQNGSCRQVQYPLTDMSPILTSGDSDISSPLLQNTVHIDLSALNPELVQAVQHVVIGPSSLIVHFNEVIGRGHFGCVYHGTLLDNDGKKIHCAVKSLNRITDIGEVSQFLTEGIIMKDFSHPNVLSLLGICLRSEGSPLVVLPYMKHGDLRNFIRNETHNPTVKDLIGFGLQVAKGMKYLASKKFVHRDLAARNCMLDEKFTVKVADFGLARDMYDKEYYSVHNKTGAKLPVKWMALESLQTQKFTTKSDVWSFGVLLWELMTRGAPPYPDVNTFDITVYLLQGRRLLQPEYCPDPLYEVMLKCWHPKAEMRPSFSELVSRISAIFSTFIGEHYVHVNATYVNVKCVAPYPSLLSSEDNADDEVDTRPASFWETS
The experiment in a line: c-Met cell-based assay (phospho-c-Met ELISA, A549 cells). The conditions noted are these: compound at 100 nM. A digest of the protocol: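 Serum-starved A549 cells (NSCLC) pretreated 2 h with compound (0.5 nM to 500 nM), then stimulated 20 min with 20% FBS. Lysates analysed by ELISA for phospho-c-Met and total c-Met with streptavidin-HRP chemiluminescence.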

T1 sequence (P35968 20-1356, species assumed): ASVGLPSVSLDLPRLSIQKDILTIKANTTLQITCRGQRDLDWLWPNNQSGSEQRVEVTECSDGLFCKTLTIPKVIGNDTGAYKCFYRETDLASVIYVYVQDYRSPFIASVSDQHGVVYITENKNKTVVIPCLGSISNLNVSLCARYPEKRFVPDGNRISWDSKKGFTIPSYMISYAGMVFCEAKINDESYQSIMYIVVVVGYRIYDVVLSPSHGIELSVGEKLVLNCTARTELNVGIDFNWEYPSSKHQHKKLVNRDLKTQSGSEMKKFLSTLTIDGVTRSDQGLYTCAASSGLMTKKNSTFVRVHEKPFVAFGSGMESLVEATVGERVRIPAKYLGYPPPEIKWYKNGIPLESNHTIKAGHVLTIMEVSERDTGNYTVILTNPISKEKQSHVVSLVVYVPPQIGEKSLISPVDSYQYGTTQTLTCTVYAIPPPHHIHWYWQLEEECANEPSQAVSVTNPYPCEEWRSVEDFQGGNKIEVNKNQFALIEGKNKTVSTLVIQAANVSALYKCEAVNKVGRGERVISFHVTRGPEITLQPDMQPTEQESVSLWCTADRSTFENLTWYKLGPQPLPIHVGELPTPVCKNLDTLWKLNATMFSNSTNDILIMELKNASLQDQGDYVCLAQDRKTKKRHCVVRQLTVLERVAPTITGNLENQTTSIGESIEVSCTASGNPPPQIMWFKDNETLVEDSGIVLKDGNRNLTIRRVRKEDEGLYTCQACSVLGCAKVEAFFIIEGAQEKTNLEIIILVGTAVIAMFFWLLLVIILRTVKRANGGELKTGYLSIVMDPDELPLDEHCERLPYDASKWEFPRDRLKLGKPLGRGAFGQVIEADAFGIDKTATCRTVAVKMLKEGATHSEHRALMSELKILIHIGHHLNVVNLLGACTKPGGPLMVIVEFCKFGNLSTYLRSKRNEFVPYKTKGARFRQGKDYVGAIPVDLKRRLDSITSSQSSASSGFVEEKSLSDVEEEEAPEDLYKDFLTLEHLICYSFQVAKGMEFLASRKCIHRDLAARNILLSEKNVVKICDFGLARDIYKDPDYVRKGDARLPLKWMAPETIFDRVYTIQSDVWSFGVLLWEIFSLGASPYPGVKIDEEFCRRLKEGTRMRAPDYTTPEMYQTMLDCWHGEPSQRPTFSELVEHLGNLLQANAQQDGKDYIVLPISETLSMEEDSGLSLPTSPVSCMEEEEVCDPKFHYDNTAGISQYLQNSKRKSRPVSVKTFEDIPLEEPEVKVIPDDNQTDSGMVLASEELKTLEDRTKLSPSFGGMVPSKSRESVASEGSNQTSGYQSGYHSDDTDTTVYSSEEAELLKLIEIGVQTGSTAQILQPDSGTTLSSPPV

Take `Cl.O=C(Nc1cccc(C(F)(F)F)c1)Nc1cccc2c1ccn2Cc1ccnc2[nH]ccc12` [Example 51, 1-(3-Trifluoromethylphenyl)-3-[1-(1H-pyrrolo[2,3-b]pyridin-4-ylmethyl)-1H-indol-4-yl]urea hydrochloride]: the remaining activity at 0.1 µM in assay [1] was less than 70%. For the same compound, the “Tumor Growth Inhibition (TGI)” value in assay [2] (50 mg/kg oral once per day, n = 2 × 3) was “A (the TGI is greater or equal to 50%)”; in assay [3], “A (the TGI is greater or equal to 50%)”; in assay [4] it was “A (the TGI is greater or equal to 50%)”. Moreover, in assay [5], the “% c-Met kinase activity remains” value is recorded as “B (the percentage is greater or equal to 70%)”.
For the compound `Cl.O=C(Nc1cc(Cl)ccc1F)Nc1cccc2c1ccn2Cc1ccnc2[nH]ccc12` [Example 56, 1-(2-Fluoro-5-chlorophenyl)-3-[1-(1H-pyrrolo[2,3-b]pyridin-4-ylmethyl)-1H-indol-4-yl]urea hydrochloride], the remaining activity at 0.1 µM in assay [1] was not below 70%. The “Tumor Growth Inhibition (TGI)” value in assay [2] (12.5 mg/kg oral once per day, n = 6 × 13) is “B (the TGI for the compound of this invention is between 0% and 50%)”; in assay [2] (25 mg/kg oral once per day, n = 6 × 13), “A (the TGI is greater or equal to 50%)”; in assay [2] (50 mg/kg oral once per day, n = 3 × 3), “A (the TGI is greater or equal to 50%)”; in assay [2] (50 mg/kg oral once per day, n = 6 × 13) it was “A (the TGI is greater or equal to 50%)”; in assay [2] (100 mg/kg oral once per day, n = 6 × 13) it was “A (the TGI is greater or equal to 50%)”; in assay [3], “A (the TGI is greater or equal to 50%)”. Also, in assay [4], the “Tumor Growth Inhibition (TGI)” value was “A (the TGI is greater or equal to 50%)”. Also, the “% c-Met kinase activity remains” value in assay [5] is “A (the percentage of kinase activity remains is below 70%)”.

Source of the values: patent US8648086B2, “5,6-bicyclic heteroaryl-containing urea compounds as kinase inhibitors” (Ascepion Pharmaceuticals, Inc., priority 2009, dated 2014).
